Columns and labels:
[1] = molecular target: Ephrin type-A receptor 1 (Homo sapiens) (UniProt P21709); assay: Inhibition of EPH-A1 (unknown origin) at 1 uM by mobility shift microfluidics platform based assay relative to control
Homo sapiens = species: Homo sapiens; assay: Inhibition of CDK/Cyclin E (unknown origin) at 1 uM by mobility shift microfluidics platform based assay relative to control
[2] = molecular target: Serine/threonine-protein kinase 10 (Homo sapiens) (UniProt O94804); assay: Inhibition of LOK (unknown origin) at 1 uM by mobility shift microfluidics platform based assay relative to control
[3] = molecular target: Mitogen-activated protein kinase 1 (Homo sapiens) (UniProt P28482); assay: Inhibition of MAPK1 (unknown origin) at 1 uM by mobility shift microfluidics platform based assay relative to control
Mitogen-activated protein kinase 1 (Homo sapiens), sequence (P28482 whole entry): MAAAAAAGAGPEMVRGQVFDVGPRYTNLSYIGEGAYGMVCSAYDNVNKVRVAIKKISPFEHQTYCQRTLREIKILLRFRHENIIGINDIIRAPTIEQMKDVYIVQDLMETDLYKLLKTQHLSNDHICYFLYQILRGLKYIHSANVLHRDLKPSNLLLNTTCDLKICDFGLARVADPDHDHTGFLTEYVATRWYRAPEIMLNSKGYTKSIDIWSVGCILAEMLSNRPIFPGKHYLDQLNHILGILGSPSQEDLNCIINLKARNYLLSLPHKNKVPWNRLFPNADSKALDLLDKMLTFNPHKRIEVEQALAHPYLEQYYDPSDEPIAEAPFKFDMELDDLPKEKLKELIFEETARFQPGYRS

[4] = molecular target: Insulin receptor-related protein (Homo sapiens) (UniProt P14616); assay: Inhibition of IRR (unknown origin) at 1 uM by mobility shift microfluidics platform based assay relative to control
[5] = molecular target: Rhodopsin kinase GRK7 (Homo sapiens) (UniProt Q8WTQ7); assay: Inhibition of GRK7 (unknown origin) at 1 uM by mobility shift microfluidics platform based assay relative to control
[6] = molecular target: Serine/threonine-protein kinase MRCK alpha (Homo sapiens) (UniProt Q5VT25); assay: Inhibition of MRCK-alpha (unknown origin) at 1 uM by mobility shift microfluidics platform based assay relative to control
[7] = molecular target: STE20-like serine/threonine-protein kinase (Homo sapiens) (UniProt Q9H2G2); assay: Inhibition of SLK (unknown origin) at 1 uM by mobility shift microfluidics platform based assay relative to control
[8] = molecular target: MAP kinase-activated protein kinase 2 (Homo sapiens) (UniProt P49137); assay: Inhibition of MAPKAPK2 (unknown origin) at 1 uM by mobility shift microfluidics platform based assay relative to control
MAP kinase-activated protein kinase 2 (Homo sapiens), sequence (P49137 whole entry, looked up): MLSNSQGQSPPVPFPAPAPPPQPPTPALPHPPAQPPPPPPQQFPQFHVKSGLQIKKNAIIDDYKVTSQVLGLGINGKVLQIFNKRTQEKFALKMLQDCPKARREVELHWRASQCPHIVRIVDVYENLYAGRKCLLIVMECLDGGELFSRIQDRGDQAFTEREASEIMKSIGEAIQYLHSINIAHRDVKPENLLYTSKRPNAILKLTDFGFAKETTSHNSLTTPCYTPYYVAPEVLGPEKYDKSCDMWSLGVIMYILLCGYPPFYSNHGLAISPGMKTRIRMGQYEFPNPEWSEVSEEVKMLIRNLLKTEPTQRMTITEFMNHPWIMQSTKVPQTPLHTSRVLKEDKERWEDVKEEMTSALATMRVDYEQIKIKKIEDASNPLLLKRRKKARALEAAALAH

[9] = molecular target: Receptor-interacting serine/threonine-protein kinase 2 (Homo sapiens) (UniProt O43353); assay: Inhibition of RIPK2 (unknown origin) at 1 uM by mobility shift microfluidics platform based assay relative to control
[10] = molecular target: Ephrin type-A receptor 3 (Homo sapiens) (UniProt P29320); assay: Inhibition of EPH-A3 (unknown origin) at 1 uM by mobility shift microfluidics platform based assay relative to control
Ephrin type-A receptor 3 (Homo sapiens), sequence (P29320 whole entry): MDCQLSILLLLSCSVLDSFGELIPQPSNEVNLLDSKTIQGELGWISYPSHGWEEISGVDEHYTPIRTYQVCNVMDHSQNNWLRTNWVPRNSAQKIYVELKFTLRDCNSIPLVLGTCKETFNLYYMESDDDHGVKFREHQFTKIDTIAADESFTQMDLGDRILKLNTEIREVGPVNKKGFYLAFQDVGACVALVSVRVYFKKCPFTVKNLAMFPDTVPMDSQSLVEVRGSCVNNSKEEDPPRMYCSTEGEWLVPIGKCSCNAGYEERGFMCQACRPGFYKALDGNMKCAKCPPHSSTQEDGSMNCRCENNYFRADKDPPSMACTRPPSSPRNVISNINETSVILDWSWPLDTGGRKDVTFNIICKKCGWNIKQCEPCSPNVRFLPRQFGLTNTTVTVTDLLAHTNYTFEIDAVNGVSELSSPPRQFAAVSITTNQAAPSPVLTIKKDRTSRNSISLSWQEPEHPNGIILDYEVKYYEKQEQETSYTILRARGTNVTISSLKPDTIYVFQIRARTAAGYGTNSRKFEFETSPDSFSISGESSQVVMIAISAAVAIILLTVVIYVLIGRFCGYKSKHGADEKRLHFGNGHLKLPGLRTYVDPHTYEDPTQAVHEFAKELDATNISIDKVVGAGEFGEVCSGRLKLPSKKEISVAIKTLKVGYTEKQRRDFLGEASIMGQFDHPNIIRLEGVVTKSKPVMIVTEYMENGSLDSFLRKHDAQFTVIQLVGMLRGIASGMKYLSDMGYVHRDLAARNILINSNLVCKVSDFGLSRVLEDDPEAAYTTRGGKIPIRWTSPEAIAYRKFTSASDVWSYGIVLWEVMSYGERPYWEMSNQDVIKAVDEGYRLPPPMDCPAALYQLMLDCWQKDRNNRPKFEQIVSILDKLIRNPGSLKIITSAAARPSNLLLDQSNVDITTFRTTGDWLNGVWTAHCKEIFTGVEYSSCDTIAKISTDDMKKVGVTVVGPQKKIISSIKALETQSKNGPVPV

[11] = molecular target: SRSF protein kinase 1 (Homo sapiens) (UniProt Q96SB4); assay: Inhibition of SRPK1 (unknown origin) at 1 uM by mobility shift microfluidics platform based assay relative to control
SRSF protein kinase 1 (Homo sapiens), sequence (Q96SB4 whole entry, canonical isoform): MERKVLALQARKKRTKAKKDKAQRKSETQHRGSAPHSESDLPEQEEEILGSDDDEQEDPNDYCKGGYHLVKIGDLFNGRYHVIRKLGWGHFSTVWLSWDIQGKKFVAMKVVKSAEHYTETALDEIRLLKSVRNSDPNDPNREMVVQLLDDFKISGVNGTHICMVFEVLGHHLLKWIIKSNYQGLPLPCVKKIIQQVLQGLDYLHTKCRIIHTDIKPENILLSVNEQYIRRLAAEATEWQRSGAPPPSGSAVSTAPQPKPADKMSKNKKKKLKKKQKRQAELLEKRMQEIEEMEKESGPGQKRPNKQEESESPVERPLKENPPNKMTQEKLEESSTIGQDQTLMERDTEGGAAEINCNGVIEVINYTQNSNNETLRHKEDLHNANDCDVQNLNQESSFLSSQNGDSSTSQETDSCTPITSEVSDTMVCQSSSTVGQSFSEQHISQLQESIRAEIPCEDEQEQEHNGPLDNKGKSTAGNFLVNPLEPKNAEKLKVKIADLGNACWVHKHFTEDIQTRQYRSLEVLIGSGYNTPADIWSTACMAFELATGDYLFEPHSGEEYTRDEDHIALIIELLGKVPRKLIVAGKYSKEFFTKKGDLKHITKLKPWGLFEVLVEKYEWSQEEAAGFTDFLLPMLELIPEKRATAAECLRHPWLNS

[12] = molecular target: Phosphatidylinositol 4,5-bisphosphate 3-kinase catalytic subunit alpha isoform (Homo sapiens) (UniProt P42336); assay: Inhibition of PI3K-alpha (unknown origin) at 1 uM by mobility shift microfluidics platform based assay relative to control
[13] = molecular target: Mitogen-activated protein kinase 10 (Homo sapiens) (UniProt P53779); assay: Inhibition of JNK3 (unknown origin) at 1 uM by mobility shift microfluidics platform based assay relative to control
[14] = molecular target: Platelet-derived growth factor receptor alpha (Homo sapiens) (UniProt P16234); assay: Inhibition of PDGFR-alpha (unknown origin) at 1 uM by mobility shift microfluidics platform based assay relative to control
[15] = molecular target: Protein NDRG1 (Homo sapiens) (UniProt Q92597); assay: Inhibition of NDRG1 (unknown origin) at 1 uM by mobility shift microfluidics platform based assay relative to control
Protein NDRG1 (Homo sapiens), sequence (Q92597 whole entry): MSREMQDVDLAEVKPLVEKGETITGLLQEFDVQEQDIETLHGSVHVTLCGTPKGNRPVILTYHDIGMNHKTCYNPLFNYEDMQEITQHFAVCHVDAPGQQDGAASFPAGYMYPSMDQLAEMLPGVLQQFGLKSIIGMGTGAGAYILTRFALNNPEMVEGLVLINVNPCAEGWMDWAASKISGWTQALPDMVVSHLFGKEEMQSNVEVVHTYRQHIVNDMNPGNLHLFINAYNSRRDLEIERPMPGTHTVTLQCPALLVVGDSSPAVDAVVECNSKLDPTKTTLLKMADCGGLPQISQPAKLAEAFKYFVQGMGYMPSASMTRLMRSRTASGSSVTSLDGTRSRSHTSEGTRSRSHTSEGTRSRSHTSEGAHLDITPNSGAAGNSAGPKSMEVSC

[16] = molecular target: cAMP-dependent protein kinase catalytic subunit beta (Homo sapiens) (UniProt P22694); assay: Inhibition of PKACB (unknown origin) at 1 uM by mobility shift microfluidics platform based assay relative to control
[17] = molecular target: Tyrosine-protein kinase HCK (Homo sapiens) (UniProt P08631); assay: Inhibition of HCK (unknown origin) at 1 uM by mobility shift microfluidics platform based assay relative to control
Tyrosine-protein kinase HCK (Homo sapiens), sequence (P08631 2-526 limits assumed): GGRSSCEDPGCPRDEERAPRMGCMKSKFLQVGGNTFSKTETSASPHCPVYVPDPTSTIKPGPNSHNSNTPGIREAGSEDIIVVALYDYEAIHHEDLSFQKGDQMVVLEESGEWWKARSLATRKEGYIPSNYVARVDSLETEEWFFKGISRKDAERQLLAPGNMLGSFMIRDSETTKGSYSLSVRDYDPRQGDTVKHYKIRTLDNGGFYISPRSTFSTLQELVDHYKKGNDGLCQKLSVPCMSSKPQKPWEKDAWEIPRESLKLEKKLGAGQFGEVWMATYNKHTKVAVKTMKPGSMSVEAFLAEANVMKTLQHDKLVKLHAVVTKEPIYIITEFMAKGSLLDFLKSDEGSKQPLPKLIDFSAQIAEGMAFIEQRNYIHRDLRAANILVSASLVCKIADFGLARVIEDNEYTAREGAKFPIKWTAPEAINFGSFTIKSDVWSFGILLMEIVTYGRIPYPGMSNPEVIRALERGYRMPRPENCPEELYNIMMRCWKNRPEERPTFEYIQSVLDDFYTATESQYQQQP

[18] = molecular target: Ribosomal protein S6 kinase alpha-6 (Homo sapiens) (UniProt Q9UK32); assay: Inhibition of RSK4 (unknown origin) at 1 uM by mobility shift microfluidics platform based assay relative to control
[19] = molecular target: Tyrosine-protein kinase TXK (Homo sapiens) (UniProt P42681); assay: Inhibition of TXK (unknown origin) at 1 uM by mobility shift microfluidics platform based assay relative to control
[20] = molecular target: Angiopoietin-1 receptor (Homo sapiens) (UniProt Q02763); assay: Inhibition of TIE2 (unknown origin) at 1 uM by mobility shift microfluidics platform based assay relative to control
[21] = molecular target: cGMP-dependent protein kinase 1 (Homo sapiens) (UniProt Q13976); assay: Inhibition of PRKG1 (unknown origin) at 1 uM by mobility shift microfluidics platform based assay relative to control
cGMP-dependent protein kinase 1 (Homo sapiens), sequence (Q13976 whole entry): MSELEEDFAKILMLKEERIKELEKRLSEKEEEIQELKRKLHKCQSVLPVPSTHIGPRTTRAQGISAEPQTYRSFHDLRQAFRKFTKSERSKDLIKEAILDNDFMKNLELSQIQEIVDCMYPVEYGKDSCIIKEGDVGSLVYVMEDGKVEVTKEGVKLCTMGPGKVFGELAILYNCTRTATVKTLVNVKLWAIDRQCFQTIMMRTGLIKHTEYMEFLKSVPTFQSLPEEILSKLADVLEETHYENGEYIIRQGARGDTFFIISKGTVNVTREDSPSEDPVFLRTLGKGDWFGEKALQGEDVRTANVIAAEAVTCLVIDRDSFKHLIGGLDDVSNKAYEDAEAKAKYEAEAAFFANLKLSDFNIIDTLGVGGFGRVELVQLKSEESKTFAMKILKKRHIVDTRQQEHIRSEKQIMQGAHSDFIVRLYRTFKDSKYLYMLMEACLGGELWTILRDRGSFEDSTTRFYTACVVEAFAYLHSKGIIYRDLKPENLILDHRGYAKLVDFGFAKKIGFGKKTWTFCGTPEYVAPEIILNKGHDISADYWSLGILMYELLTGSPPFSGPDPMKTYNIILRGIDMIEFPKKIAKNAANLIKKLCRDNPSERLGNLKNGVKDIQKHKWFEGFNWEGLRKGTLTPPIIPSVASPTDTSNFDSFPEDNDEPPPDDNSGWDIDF

[22] = molecular target: Protein kinase C zeta type (Homo sapiens) (UniProt Q05513); assay: Inhibition of PKC-zeta (unknown origin) at 1 uM by mobility shift microfluidics platform based assay relative to control
[23] = molecular target: Dual specificity tyrosine-phosphorylation-regulated kinase 1A (Homo sapiens) (UniProt Q13627); assay: Inhibition of DYRK1A (unknown origin) at 1 uM by mobility shift microfluidics platform based assay relative to control
[24] = molecular target: Mitogen-activated protein kinase 9 (Homo sapiens) (UniProt P45984); assay: Inhibition of JNK2 (unknown origin) at 1 uM by mobility shift microfluidics platform based assay relative to control
[25] = molecular target: Protein kinase C iota type (Homo sapiens) (UniProt P41743); assay: Inhibition of PKC-iota (unknown origin) at 1 uM by mobility shift microfluidics platform based assay relative to control
[26] = molecular target: Ephrin type-A receptor 8 (Homo sapiens) (UniProt P29322); assay: Inhibition of EPH-A8 (unknown origin) at 1 uM by mobility shift microfluidics platform based assay relative to control
Ephrin type-A receptor 8 (Homo sapiens), sequence (P29322 whole entry): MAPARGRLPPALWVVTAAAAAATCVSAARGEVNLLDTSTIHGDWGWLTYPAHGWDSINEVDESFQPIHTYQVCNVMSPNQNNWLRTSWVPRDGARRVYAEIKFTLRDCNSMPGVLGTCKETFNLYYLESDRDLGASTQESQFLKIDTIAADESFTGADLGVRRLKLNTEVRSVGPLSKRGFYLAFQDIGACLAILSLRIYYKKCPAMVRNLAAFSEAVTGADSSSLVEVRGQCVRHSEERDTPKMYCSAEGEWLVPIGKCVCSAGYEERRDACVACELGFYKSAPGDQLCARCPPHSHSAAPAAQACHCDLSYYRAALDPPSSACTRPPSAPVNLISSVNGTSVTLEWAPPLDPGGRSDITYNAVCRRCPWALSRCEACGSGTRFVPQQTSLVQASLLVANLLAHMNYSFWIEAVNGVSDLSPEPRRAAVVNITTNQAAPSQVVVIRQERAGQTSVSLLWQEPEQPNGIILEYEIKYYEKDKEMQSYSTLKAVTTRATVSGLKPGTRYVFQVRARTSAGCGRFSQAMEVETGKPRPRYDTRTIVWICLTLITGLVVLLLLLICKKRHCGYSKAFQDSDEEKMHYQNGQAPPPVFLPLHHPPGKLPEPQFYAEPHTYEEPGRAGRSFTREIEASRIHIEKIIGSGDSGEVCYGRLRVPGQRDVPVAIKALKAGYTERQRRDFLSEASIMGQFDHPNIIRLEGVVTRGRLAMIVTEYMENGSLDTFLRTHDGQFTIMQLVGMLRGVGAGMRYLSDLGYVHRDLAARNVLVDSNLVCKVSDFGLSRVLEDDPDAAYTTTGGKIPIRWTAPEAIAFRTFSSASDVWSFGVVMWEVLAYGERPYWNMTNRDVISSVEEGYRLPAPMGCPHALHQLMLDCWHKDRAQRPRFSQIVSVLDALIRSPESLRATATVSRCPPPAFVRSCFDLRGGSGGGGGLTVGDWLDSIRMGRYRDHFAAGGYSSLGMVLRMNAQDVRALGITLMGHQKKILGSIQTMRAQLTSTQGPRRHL

[27] = molecular target: Mitogen-activated protein kinase 14 (Homo sapiens) (UniProt Q16539); assay: Inhibition of P38-alpha (unknown origin) at 1 uM by mobility shift microfluidics platform based assay relative to control
[28] = molecular target: Cyclin-dependent kinase 5/CDK5 activator 1 (Homo sapiens) (UniProt Q00535+Q15078); assay: Inhibition of CDK5-p25 (unknown origin) at 1 uM by mobility shift microfluidics platform based assay relative to control; format: protein-complex assay
[29] = molecular target: Tyrosine-protein kinase Lyn (Homo sapiens) (UniProt P07948); assay: Inhibition of LYNA (unknown origin) at 1 uM by mobility shift microfluidics platform based assay relative to control
[30] = molecular target: Macrophage-stimulating protein receptor (Homo sapiens) (UniProt Q04912); assay: Inhibition of RON (unknown origin) at 1 uM by mobility shift microfluidics platform based assay relative to control
[31] = molecular target: Tyrosine-protein kinase CSK (Homo sapiens) (UniProt P41240); assay: Inhibition of CSK (unknown origin) at 1 uM by mobility shift microfluidics platform based assay relative to control
[32] = molecular target: Serine/threonine-protein kinase Chk2 (Homo sapiens) (UniProt O96017); assay: Inhibition of CHEK2 (unknown origin) at 1 uM by mobility shift microfluidics platform based assay relative to control
[33] = molecular target: Aurora kinase B (Homo sapiens) (UniProt Q96GD4); assay: Inhibition of AURORA-B (unknown origin) at 1 uM by mobility shift microfluidics platform based assay relative to control

inhibition [1] [%] | inhibition (Homo sapiens) [%] | inhibition [2] [%] | inhibition [3] [%] | inhibition [4] [%] | inhibition [5] [%] | inhibition [6] [%] | inhibition [7] [%] | inhibition [8] [%] | inhibition [9] [%] | inhibition [10] [%] | inhibition [11] [%] | inhibition [12] [%] | inhibition [13] [%] | inhibition [14] [%] | inhibition [15] [%] | inhibition [16] [%] | inhibition [17] [%] | inhibition [18] [%] | inhibition [19] [%] | Structure (SMILES) | other results
97 | 1 to 3 | 97 | 0 | 2 | 1 | 0 | 92 | -1 | 98 | 98 | 1 | 36 | -8 | 100 | -3 | 2 | 107 | 2 | 94 | CC(C)n1nc(C#Cc2cccc(NC(=O)c3cccc(C(F)(F)F)c3)c2)c2c(N)ncnc21 | inhibition [20]: 96%; inhibition [21]: 1%; inhibition [22]: 2%; inhibition [23]: 2%; inhibition [24]: 26%; inhibition [25]: -3%; inhibition [26]: 100%; inhibition [27]: 70%; inhibition [28]: 2%; inhibition [29]: 99%; inhibition [30]: 2%; inhibition [31]: 93%; inhibition [32]: 3%; inhibition [33]: 82%
46 | -1 to 3 | 59 | 2 | -3 | 5 | 2 | 18 | 5 | 82 | 76 | 2 | -8 | 5 | 94 | 6 | 3 | 81 | 0 | 5 | CC(C)n1nc(C#Cc2cccc3cc(-c4cccc(C(F)(F)F)c4)ncc23)c2c(N)ncnc21 | inhibition [20]: 61%; inhibition [21]: 1%; inhibition [22]: 4%; inhibition [23]: 2%; inhibition [24]: 8%; inhibition [25]: 2%; inhibition [26]: 97%; inhibition [27]: 15%; inhibition [28]: 2%; inhibition [29]: 95%; inhibition [30]: 1%; inhibition [31]: 31%; inhibition [32]: -4%; inhibition [33]: 27%

— ChEMBL document CHEMBL4229333, “Effects of rigidity on the selectivity of protein kinase inhibitors” (Eur J Med Chem, 2018)
